The target in series [1] is cAMP and cAMP-inhibited cGMP 3',5'-cyclic phosphodiesterase 10A (Homo sapiens) (UniProt Q9Y233). The series can be described thus: Inhibition of PDE10A (unknown origin).
A short description of series [2]: Inhibition of mitochondrial complex 1 in human A549 cells assessed as oxygen consumption rate by seahorse analysis. It is filed as cell-based.
Series [3] in a line: Inhibition of Cytochrome b-c1 complex I304M/R306K double mutant in Rhodobacter capsulatus MT-RBC1.
In series [4] the test system is MCF7. The series can be described thus: Inhibition of mammosphere formation in human MCF7 cells incubated for 5 days. It is filed as functional, cell-based. Particulars: MCF7, 120 h.
Series [5] in a line: Inhibition of mitochondrial complex 1 in human MiaPaCa-2 cells assessed as reduction in oxygen consumption incubated for 24 hrs. It is filed as cell-based. Particulars: mia paca-2.
The nature of series [6]: Ratio of drug level in ICR mouse brain to plasma at 30 mg/kg, po by LC-MS analysis. It is filed as ADME, organism-based. Particulars: read-out: BPR.
Series [7] can be described thus: Antiproliferative activity against human H2030-BrM3 cells by IncuCyte live-cell imaging assay. It is filed as functional, cell-based.
Series [8] relates to A549. The series can be described thus: Antiproliferative activity against human A549 cells by IncuCyte live-cell imaging assay. It is filed as functional, cell-based.
A short description of series [9]: Inhibition of mitochondrial complex 1 in Sprague-Dawley rat heart mitochondria by spectrophotometric method.
Series [10] can be described thus: Half life in mouse plasma incubated up to 1440 mins by mass spectrometric analysis. It is filed as ADME, cell-free.
The nature of series [11]: Half life in CD1 mouse plasma at 10 mg/kg, ip by LC/MS/MS analysis. It is filed as ADME, organism-based.
The nature of series [12]: Cmax in CD1 mouse plasma at 10 mg/kg, ip by LC/MS/MS analysis. It is filed as ADME, organism-based. Further details: route intraperitoneal, dose 10 mg/kg.
Series [13] is described as follows: Inhibition of mitochondrial complex 1 in human NCI-H460 cells assessed as reduction in oxygen consumption rate by seahorse analysis. It is filed as cell-based.
Series [14] in a line: Inhibition of mitochondrial complex1 (unknown origin). Also on record: species or system Homo sapiens.
Series [15] is described as follows: Inhibition of mitochondrial complex 1 in human PC-3 cell mitochondria assessed as reduction in oxygen consumption using glutamate/malate/ADP as substrate by oxygen sensitive fluorescent dye based assay.
A short description of series [16]: Inhibition of mitochondrial complex 1 in human NCI-H460 cells assessed as reduction in cell proliferation incubated for 48 hrs under galactose containing medium by cell titer glow assay. It is filed as cell-based. The following applies: NCI-H460, 48 h. For orientation: In ATP-based viability assays light output follows the ATP content of the culture.
A short description of series [17]: Inhibition of mitochondrial complex 1 in bovine heart mitochondria incubated for 3 hrs and measured up to 30 mins by colorimetric method.
The nature of series [18]: Inhibition of F0F1-ATP synthase in yeast intact mitochondria by LDH/pyruvate kinase coupled enzyme assay. Further details: species or system Saccharomyces cerevisiae.
A short description of series [19]: Inhibition of yeast mitochondrial F0F1-ATP synthase by LDH/pyruvate kinase coupled enzyme assay. Further details: species or system Saccharomyces cerevisiae.
Series [20] deals with GBM. The experiment in a line: Growth inhibition of patient derived GBM cells incubated for 4 days by Celltiter glo assay. It is filed as functional, cell-based. The following applies: Homo sapiens, 96 h.
A short description of series [21]: Half life in ICR/CD-1 mouse S9 fraction incubated for 0 to 240 mins in presence of NADPH regenerating system by HPLC/MS analysis. It is filed as ADME, subcellular. Particulars: time 0-240 min.
A short description of series [22]: Growth inhibition of mouse GBM cells incubated for 4 days by Celltiter glo assay. It is filed as functional, cell-based. The following applies: 96 h.
Series [23] is described as follows: Inhibition of mitochondrial pyruvate carrier in Wistar rat liver mitochondria assessed as reduction in [1-14C]pyruvate uptake preincubated for 2 mins followed by rotenone and [1-14C]pyruvate addition by scintillation counting method.
Series [24] can be described thus: Oral bioavailability in ICR mouse at 30 mg/kg. It is filed as ADME, organism-based. The following applies: in vivo.

The values below come from ChEMBL document CHEMBL4765461, “Why All the Fuss about Oxidative Phosphorylation (OXPHOS)?” (J Med Chem, 2020).

Chain of cAMP and cAMP-inhibited cGMP 3',5'-cyclic phosphodiesterase 10A (Homo sapiens) (Q9Y233 whole entry): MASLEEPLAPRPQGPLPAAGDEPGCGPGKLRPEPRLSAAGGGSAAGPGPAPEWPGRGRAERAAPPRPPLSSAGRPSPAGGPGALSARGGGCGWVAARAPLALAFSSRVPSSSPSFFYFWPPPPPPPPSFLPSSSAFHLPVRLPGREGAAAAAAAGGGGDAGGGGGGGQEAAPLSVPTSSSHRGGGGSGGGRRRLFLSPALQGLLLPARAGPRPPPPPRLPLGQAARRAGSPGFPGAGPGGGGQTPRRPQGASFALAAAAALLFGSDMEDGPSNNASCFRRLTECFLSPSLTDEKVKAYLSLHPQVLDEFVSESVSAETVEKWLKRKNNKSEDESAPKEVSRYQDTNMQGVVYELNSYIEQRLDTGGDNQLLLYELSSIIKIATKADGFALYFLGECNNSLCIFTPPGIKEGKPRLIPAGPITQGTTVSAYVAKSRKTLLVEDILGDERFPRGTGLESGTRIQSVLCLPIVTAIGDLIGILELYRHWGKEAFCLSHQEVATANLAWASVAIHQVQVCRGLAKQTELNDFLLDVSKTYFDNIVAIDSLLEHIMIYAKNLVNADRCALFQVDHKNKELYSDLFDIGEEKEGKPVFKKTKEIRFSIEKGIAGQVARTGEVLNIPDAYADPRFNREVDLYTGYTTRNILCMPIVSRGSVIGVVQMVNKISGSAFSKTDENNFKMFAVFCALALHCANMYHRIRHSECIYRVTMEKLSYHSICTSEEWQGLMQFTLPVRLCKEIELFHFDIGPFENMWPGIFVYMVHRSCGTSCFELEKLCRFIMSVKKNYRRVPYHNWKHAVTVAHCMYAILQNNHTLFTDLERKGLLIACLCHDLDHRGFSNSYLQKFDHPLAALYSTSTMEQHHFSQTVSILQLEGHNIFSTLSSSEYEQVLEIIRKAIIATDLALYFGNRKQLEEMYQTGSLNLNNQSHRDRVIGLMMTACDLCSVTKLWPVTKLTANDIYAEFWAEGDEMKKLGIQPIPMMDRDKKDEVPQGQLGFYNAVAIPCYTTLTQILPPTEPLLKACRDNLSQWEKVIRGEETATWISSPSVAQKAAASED

Turning to `COc1cc2ccnc(Cc3cccc4ccccc34)c2cc1OC`, in series [1], the 20% effect level (IC20) was put at 13.4 µM. Besides, in [2], the IC50 is 7.2 µM. Consider `O=C1C(O)=C([C@H]2CC[C@H](c3ccc(Cl)cc3)CC2)C(=O)c2ccccc21` [ATOVAQUONE], for which the half-maximal inhibitory concentration (IC50) was 0.01 µM in series [3] and 1 µM in [4]. Consider `N=C(N)NC(=N)NCCCCCCCCCC[P+](c1ccccc1)(c1ccccc1)c1ccccc1`, for which the IC50 in [5] worked out at 0.4 µM. For `CN(C)C(=N)NC(=N)N` [METFORMIN], the IC50 stood at 1100 µM in series [5], 139 µM in series [7] and 208 µM in [8]. Moreover, the Kp in [6] was 0.1. For `Cc1ccc(Sc2cccc3[nH]c4nc(N)nc(N)c4c23)cc1`, in series [9], the 50% inhibitory concentration (IC50) was found to be 9.9 µM. For `CC(C)[C@@H]1CC[C@@H](C)C[C@H]1OC(=O)Cn1c(-c2cccc(C(F)(F)F)c2)[n+](C)c2ccccc21.[I-]`, the values for the half-life in series [10] and in series [11] were 5.1 h and 15.2 h, respectively. In series [12], this compound yielded a Cmax of 375 ng/g.

For the compound `Cc1nc(-c2nc(-c3ccc(OC(F)(F)F)cc3)no2)nn1Cc1cccc(N2CCC(S(C)(=O)=O)CC2)c1`, in series [13], the IC50 turned out to be 0.0014 µM. Regarding `COc1ccc(Cc2nccc3cc(OC)c(OC)cc23)cc1OC` [PAPAVERINE], it took 0.65 µM to reach the 20% level in [1] (IC20). Further, the 50% inhibitory concentration (IC50) in series [2] was 15.4 µM. In turn, `C=C(C)[C@H]1Cc2c(ccc3c2O[C@@H]2COc4cc(OC)c(OC)cc4[C@@H]2C3=O)O1` [ROTENONE] had a half-inhibitory concentration (IC50) in [14] of 0.1 µM. As to `Cc1cc(-c2nc(-c3ccc(OC(F)(F)F)cc3)no2)nn1Cc1ccnc(N2CCN(C3CC3)CC2)c1`, the 50% inhibitory concentration (IC50) in [15] was 0.01 µM. For the same compound, in series [16], the EC50 is 0.003 µM. In series [17], `FC(F)(F)c1ccc(/C=C/c2nc(COc3ccc(CCCCn4ccnn4)cc3)co2)cc1` [MUBRITINIB] came in with a 50% inhibitory concentration (IC50) of 0.051 µM. Turning to `COC[C@@H](C[C@H]1O[C@@](O)([C@H](O)[C@@H]2C[C@H](OC)[C@@H](O)CC/C=C(C)/C=C/[C@@H](O[C@@H]3O[C@@H](C)[C@H](OC)[C@@H](O)[C@@H]3O)[C@H](C)/C=C(C)/C=C(C)/C=C(\C)C(=O)O2)[C@H](C)[C@@H](O)[C@H]1C)O[C@H]1C[C@](C)(O)[C@@H](O[C@H]2C[C@@H](OC)[C@H](O)[C@@H](C)O2)[C@H](C)O1`, the Ki in series [18] worked out at 5 µM; in series [19] it was 4 µM. Turning to `CCc1n(CC(=O)O[C@@H]2C[C@H](C)CC[C@H]2C(C)C)c2ccccc2[n+]1C.[Cl-]`, the half-life amounted to 0.0667 h in series [10] and 3.62 h in series [21]. For the same compound, the IC50 came out at 1 µM in series [20] and 0.15 µM in [22].

`O=C(O)c1nn(Cc2ccc(Cl)cc2Cl)c2ccccc12` [LONIDAMINE]: the inhibition constant Ki in [23] was determined as 2.5 µM. With `O=C(NCCCCCCCCCC[P+](c1ccccc1)(c1ccccc1)c1ccccc1)c1nn(Cc2ccc(Cl)cc2Cl)c2ccccc12`, the IC50 in series [7] was 0.74 µM; in series [8], 0.69 µM. The compound `N=C(NC(=N)N1CCCC1)Nc1ccc(OC(F)(F)F)cc1` [LIXUMISTAT] returned a bioavailability in [24] of 72.9%. For the same compound, the Kp in series [6] came to 0.37.

As a reminder, the IC20 is the concentration needed for an effect of 20%. A low value points to an effect from little substance. In general, IC50 refers to the point on the concentration scale where inhibition reaches its midpoint. Broadly, the half-life is the time needed for the level to fall by half in the phase considered. The term Cmax denotes the peak of the concentration-time curve. The term EC50 denotes the concentration giving half of the maximal effect. As usually defined, the Ki is the equilibrium dissociation constant of an inhibitor or competing ligand from its target. A word on the bioavailability: it is dose-corrected exposure relative to a reference, in per cent. High values mean good availability, low ones poor availability.
